Reference: patent publication US20110009435A1, “HETERO BICYCLIC CARBOXAMIDE DERIVATIVES AND THEIR PHARMACEUTICAL USE AND COMPOSITIONS” (Pfizer, Inc., priority 2007, published 2011)

Key:
[1] = molecular target: T1, catalytic domain of human recombinant MMP-3 (Homo sapiens, UniProt P08254); assay: In vitro MMP inhibition assay, MMP-3 catalytic domain (fluorogenic peptide substrate cleavage, Ki); assay type: biochemical; details: human MMP-3, catalytic domain (CD); read-out: hMMP Ki 03/CD
T1 construct: made in house
Method: (§1) Matrix Metalloproteinase inhibitor compounds were analyzed in in vitro MMP Inhibition assays to determine their ability to inhibit the MMP cleavage of peptide substrates. Inhibition constants (Ki) were calculated from the assayed compound-MMP interactions.
(§2) Human recombinant MMP-1, MMP-2, MMP-3, MMP-7, MMP-9, MMP-12, MMP-13, MMP-14 and MMP-15 were used in these assays. The enzymes are prepared following known laboratory procedures. Protocols for the preparation and use of these enzymes are available in the scientific literature. See, e.g., Enzyme Nomenclature (Academic Press, San Diego, Calif., 1992) and the citations therein. See also Frije et al., J. Biol. Chem., 26(24), 16766-73 (1994).
The catalytic domain MMP-3 cDNA may be used to express the catalytic domain enzyme in E. coli inclusion bodies. Then the enzyme is solubilized in urea, purified on a preparative […] reverse phase HPLC column, and refolded in the presence of zinc acetate and purified for use.
The fluorogenic, methoxycoumarin-containing polypeptide substrate Mca-Arg-Pro-Lys-Pro-Val-Glu-Nva-Trp-Arg-Lys(Dnp)-NH2 (Bachem catalog number M-2110) was used as the MMP substrate in the MMP inhibition assays for catalytic domain of human recombinant MMP-3 (which refers to the catalytic domain of stromelysin). Here, “MCA” is 7-methoxycoumarin-4-yl acetyl and “Dpa” is 3-(2,4-dinitrophenyl)-L-2,3-di-aminopropionyl group. In the absence of MMP inhibitory activity, the substrate is cleaved at the Gly-Leu peptide bond. The cleavage separates the highly fluorogenic peptide from the 2,4-dinitrophenyl quencher, resulting in an increase of fluorescent intensity.
For the human MMP-3 assay, dilutions of the inhibitors (or salts thereof) were prepared in 100% DMSO. The stock solutions were diluted in Buffer B (50 mM N-morpholinoethane sulfonate (“MES”), 100 mM NaCl, 10 mM CaCl2, 0.005% polyoxyethylene 23 lauryl ether, pH 6.0)) to obtain solutions with different compound concentrations, i.e., assay solutions with different concentrations of the assayed MMP inhibitory compound in 1% DMSO. The experiment controls contained the same amount of Buffer B/DMSO as the assayed sample, but contained no inhibitor.
(§3) To determine Ki, the inhibitor samples are incubated at room temperature for 1 hr in the presence of enzyme and then 4 μM of appropriate MMP substrate was added, and samples were analyzed on a Tecan SpectraFlour Plus plate reader. The excitation wavelength is 330 nm, and the emission (fluorescence) wavelength is 420 nm. In the absence of MMP inhibitory activity, the substrate is cleaved at the Gly-Leu bond resulting in an increase of relative fluorescence. Inhibition is observed as a reduced rate of increase in relative fluorescence.
The inhibitors are analyzed using a single low enzyme concentration with a single substrate concentration fixed at or below the Km. This protocol is a modification of method by Knight et al., FEBS Lett., 296(3), 263-266 (1992). Apparent inhibitory constants are determined by non-linear regression of reaction velocity as a function of inhibitor and enzyme concentration using Morrison's equation, as described by Kuzmic, Anal. Biochem. 286, 45-50 (2000). Modifications were made in the non-linear regression method to allow a common control reaction rate and effective enzyme concentration to be shared between all dose-response relationships on a given assay plate. Since the substrate concentration was chosen to be at or below the Km, the apparent Ki's from this analysis were reported as Ki's without correction for the influence of substrate.

[2] = molecular target: T2, Human recombinant MMP-13 (Homo sapiens, UniProt P45452); assay: In vitro MMP inhibition assay, MMP-13 (fluorogenic peptide substrate cleavage, Ki); assay type: biochemical; details: human MMP-13, full length (FL); read-out: hMMP Ki 13/FL
T2 construct: made in house; host or cells: baculovirus expression (insect cells)
Method: as §1, §2
The MMP-13 may be obtained as a proenzyme from a full-length cDNA clone using baculovirus expression, as described by V. A. Luckow, “Insect Cell Expression Technology,” Protein Engineering: Principles and Practice, pp. 183-218 (edited by J. L. Cleland et al., Wiley-Liss, Inc., 1996). The expressed proenzyme was first purified over a heparin agarose column, and then over a chelating zinc chloride column. Further details on baculovirus expression systems may be found in, for example, Luckow et al., J. Virol., 67, 4566-79 (1993). See also O'Reilly et al, Baculovirus Expression Vectors: A Laboratory Manual (W. H. Freeman and Co., New York, N.Y., 1992). See also King et al., The Baculovirus Expression System: A Laboratory Guide (Chapman & Hall, London, England, 1992).
All full length MMPs were activated using 4-aminophenylmercuric acetate (“APMA”, Sigma Chemical, St. Louis, Mo.) or trypsin. MMP-9 also was activated using human recombinant MMP-3 following standard cloning and purification techniques.
The fluorogenic, methoxycoumarin-containing polypeptide substrate MCA-ArgProLeuGlyLeuDpaAlaArgGluArgNH2 was used as the MMP substrate in the MMP inhibition assays for human recombinant MMP-1, MMP-2, MMP-7, MMP-9, MMP-12, MMP-13, MMP-14 and MMP-15. Here, “MCA” is 7-methoxycoumarin-4-yl acetyl and “Dpa” is 3-(2,4-dinitrophenyl)-L-2,3-di-aminopropionyl group. In the absence of MMP inhibitory activity, the substrate is cleaved at the Gly-Leu peptide bond. The cleavage separates the highly fluorogenic peptide from the 2,4-dinitrophenyl quencher, resulting in an increase of fluorescent intensity.
For the human MMP-1, MMP-2, MMP-7, MMP-9, MMP-12, MMP-13, MMP-14 and MMP-15 assays, dilutions of the inhibitors (or salts thereof) were prepared in 100% dimethyl sulfoxide (DMSO). The stock solutions were diluted in Buffer A (100 mM Tris-HCl, 100 mM NaCl, 10 mM CaCl2, 0.005% polyoxyethylene 23 lauryl ether, pH 7.5) to obtain solutions with different compound concentrations, i.e., assay solutions with different concentrations of the assayed MMP inhibitory compound in 1% DMSO. The experiment controls contained the same amount of Buffer A/DMSO as the assayed sample, but contained no inhibitor.
as §3
The inhibitors are analyzed using a single low enzyme concentration with a single substrate concentration fixed at or below the Km. This protocol is a modification of method by Knight et al., FEBS Lett., 296(3), 263-266 (1992). Apparent inhibitory constants are determined by non-linear regression of reaction velocity as a function of inhibitor and enzyme concentration using Morrison's equation, as described by Kuzmic, Anal. Biochem. 286, 45-50 (2000). […]

T1 sequence (P08254 100-272 limits assumed): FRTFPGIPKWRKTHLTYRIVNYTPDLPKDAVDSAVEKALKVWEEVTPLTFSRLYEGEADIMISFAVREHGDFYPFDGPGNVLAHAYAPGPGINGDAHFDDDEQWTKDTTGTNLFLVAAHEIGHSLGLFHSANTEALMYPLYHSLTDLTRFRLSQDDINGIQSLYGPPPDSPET

| Compound | Ki [1] [nM] | Ki [2] [nM] |
| --- | --- | --- |
| COc1cc(CNC(=O)c2nc3scc(COC[C@H]4CC[C@H](C(N)=O)CC4)c3c(=O)[nH]2)ccc1F [Example 13, N-(4-Fluoro-3-methoxybenzyl)-5-(((trans-4-carbamoylcyclohexyl)methoxy)methyl)-4-oxo-3,4-dihydrothieno[2,3-d]pyrimidine-2-carboxamide] | 258 | 0.141 |
| COc1cc(CNC(=O)c2nc3scc(COC[C@H]4CC[C@H](C(=O)O)CC4)c3c(=O)[nH]2)ccc1F [Example 10, Trans-4-(((2-((4-Fluoro-3-methoxybenzyl)carbamoyl)-4-oxo-3,4-dihydrothieno[2,3-d]pyrimidin-5-yl)methoxy)methyl)cyclohexanecarboxylic acid] | 163 | 0.143 |
| COc1cccc(CNC(=O)c2nc3scc(COC[C@@H]4CO[C@@H](C(=O)O)CO4)c3c(=O)[nH]2)c1 (relative stereo) [Example 8, Trans-5-(((2-((3-Methoxybenzyl)carbamoyl)-4-oxo-3,4-dihydrothieno[2,3-d]pyrimidin-5-yl)methoxy)methyl)-1,4-dioxane-2-carboxylic acid] | 1310 | 4.16 |
| COc1cccc(CNC(=O)c2nc3scc(COCCC4CCN(S(C)(=O)=O)CC4)c3c(=O)[nH]2)c1 [Example 27, N-(3-methoxybenzyl)-5-({2-[1-(methylsulfonyl)piperidin-4-yl]ethoxy}methyl)-4-oxo-3,4-dihydrothieno[2,3-d]pyrimidine-2-carboxamide] | 779 | 1.78 |
| COc1cccc(CNC(=O)c2nc3ccc(F)c(OC[C@H]4CC[C@H](CO)CC4)c3c(=O)[nH]2)c1 [Example 29, 6-fluoro-5-{[trans-4-(hydroxymethyl)cyclohexyl]methoxy}-N-(3-methoxybenzyl)-4-oxo-3,4-dihydroquinazoline-2-carboxamide] | 1600 | 0.374 |
| COc1cccc(CNC(=O)c2nc3ccc(F)c(OCCC4CCN(S(C)(=O)=O)CC4)c3c(=O)[nH]2)c1 [Example 31, 6-fluoro-N-(3-methoxybenzyl)-5-{2-[1-(methylsulfonyl)piperidin-4-yl]ethoxy}-4-oxo-3,4-dihydroquinazoline-2-carboxamide] | 1280 | 0.085 |
| COc1cc(CNC(=O)c2nc3scc(COC[C@H]4CC[C@H](NC(=O)CO)CC4)c3c(=O)[nH]2)ccc1F [Example 23, N-(4-Fluoro-3-methoxybenzyl)-5-((((trans-1,4)-4-(2-hydroxyacetamido)cyclohexyl)methoxy)methyl)-4-oxo-3,4-dihydrothieno[2,3-d]pyrimidine-2-carboxamide] | 453 | 0.582 |
| COc1cccc(CNC(=O)c2nc3ccc(F)c(OCCC4CCN(CCO)CC4)c3c(=O)[nH]2)c1 [Example 35, 6-fluoro-5-{2-[1-(2-hydroxyethyl)piperidin-4-yl]ethoxy}-N-(3-methoxybenzyl)-4-oxo-3,4-dihydroquinazoline-2-carboxamide] | 5200 | 4.15 |
| COc1cccc(CNC(=O)c2nc3scc(COC[C@H]4CC[C@H](NS(C)(=O)=O)CC4)c3c(=O)[nH]2)c1 [Example 16, N-(3-Methoxybenzyl)-5-[({trans-4-[(methylsulfonyl)amino]cyclohexyl}methoxy)methyl]-4-oxo-3,4-dihydrothieno[2,3-d]pyrimidine-2-carboxamide] | 533 | 0.41 |
| COc1cc(CNC(=O)c2nc3scc(COC[C@@H]4CO[C@@H](C(N)=O)CO4)c3c(=O)[nH]2)ccc1F (relative stereo) [Example 15, N-(4-Fluoro-3-methoxybenzyl)-5-(((trans-5-carbamoyl-1,4-dioxan-2-yl)methoxy)methyl)-4-oxo-3,4-dihydrothieno[2,3-d]pyrimidine-2-carboxamide] | 960 | 4.04 |

Continued, values first:

| Ki [1] [nM] | Ki [2] [nM] | Compound |
| --- | --- | --- |
| 468 | 0.747 | COc1cccc(CNC(=O)c2nc3scc(COC[C@H]4CC[C@H](C#N)CC4)c3c(=O)[nH]2)c1 [Example 6, N-(3-Methoxybenzyl)-5-(((trans-4-cyanocyclohexyl)methoxy)methyl)-4-oxo-3,4-dihydrothieno[2,3-d]pyrimidine-2-carboxamide] |
| 337 | 0.471 | COc1cccc(CNC(=O)c2nc3scc(COC[C@H]4CC[C@H](CO)CC4)c3c(=O)[nH]2)c1 [Example 4, N-(3-methoxybenzyl)-5-(((trans-4-(hydroxymethyl)cyclohexyl)methoxy)methyl)-4-oxo-3,4-dihydrothieno[2,3-d]pyrimidine-2-carboxamide] |
| 389 | 0.221 | COc1cccc(CNC(=O)c2nc3scc(COC[C@H]4CC[C@H](C(=O)O)CC4)c3c(=O)[nH]2)c1 [Example 5, Trans-4-(((2-((3-Methoxybenzyl)carbamoyl)-4-oxo-3,4-dihydrothieno[2,3-d]pyrimidin-5-yl)methoxy)methyl)cyclohexanecarboxylic acid] |
| 656 | 1.62 | COc1cccc(CNC(=O)c2nc3scc(COC[C@H]4CC[C@H](NC(C)=O)CC4)c3c(=O)[nH]2)c1 [Example 17, 5-({[trans-4-(Acetylamino)cyclohexyl]methoxy}methyl)-N-(3-methoxybenzyl)-4-oxo-3,4-dihydrothieno[2,3-d]pyrimidine-2-carboxamide] |
| 672 | 1.25 | COc1cccc(CNC(=O)c2nc3scc(COC[C@H]4CC[C@H](NC(=O)CO)CC4)c3c(=O)[nH]2)c1 [Example 21, N-(3-Methoxybenzyl)-5-((((trans-1,4)-4-(2-hydroxyacetamido)cyclohexyl)methoxy)methyl)-4-oxo-3,4-dihydrothieno[2,3-d]pyrimidine-2-carboxamide] |
